Source: US7763617B2, “Pyrazolopyridine-4-yl pyridazinone derivatives and addition salts thereof, and PDE inhibitors comprising the same derivatives or salts as active ingredient” (Kyorin Pharmaceutical Co., Ltd., priority 2005, dated 2010)

Tests used:
[1] = target: T1, PDE3A catalytic domain (PDE3Acat) (Homo sapiens, UniProt Q14432); assay: Inhibition of phosphodiesterase activity, [3H]-cAMP hydrolysis, recombinant PDE3Acat; assay type: biochemical; conditions: human recombinant PDE3Acat, cAMP 2 μmol/L; read-out: IC50(μmol/L) PDE3
T1 construct: cDNA fragments of PDE3A catalytic domain (indicated as “cat,” hereinafter); made in house; host or cells: Sf9 insect cells (baculovirus, Bac-to-Bac)
T1 sequence (Q14432 674-1093 limits assumed): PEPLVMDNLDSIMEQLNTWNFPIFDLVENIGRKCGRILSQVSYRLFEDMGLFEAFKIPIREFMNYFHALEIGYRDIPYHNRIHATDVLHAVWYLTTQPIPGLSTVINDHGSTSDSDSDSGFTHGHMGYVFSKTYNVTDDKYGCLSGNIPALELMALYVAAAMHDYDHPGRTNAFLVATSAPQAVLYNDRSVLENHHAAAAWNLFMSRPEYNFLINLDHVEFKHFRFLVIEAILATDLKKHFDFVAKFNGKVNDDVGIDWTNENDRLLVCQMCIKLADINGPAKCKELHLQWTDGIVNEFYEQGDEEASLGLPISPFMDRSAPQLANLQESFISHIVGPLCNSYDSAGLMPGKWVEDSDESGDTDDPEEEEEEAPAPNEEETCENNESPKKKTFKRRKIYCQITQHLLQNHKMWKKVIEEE
Procedure: (§1) RT-PCR was performed to isolate cDNA fragments of PDE3A catalytic domain (indicated as “cat,” hereinafter), PDE4Bcat, PDE5Acat and PDE10A1 from human RNA. Using Gateway system (Invitrogen) and Bac-to-Bac (registered trademark) Baculovirus Expression system (Invitrogen), the isolated cDNA fragments were transfected into Sf9 insect cells for expression of the PDE proteins. The recombinant PDE3Acat, PDE4Bcat, PDE5Acat and PDE10A1 proteins were isolated from culture supernatant or cell extracts of Sf9 cells expressed high levels of these proteins by ion-exchange chromatography and used for the following experiments.
(§2) 4 mmol/L solution of each test compound was serially diluted 4-fold with 15% DMSO solution to prepare the solutions with concentrations of 15 nmol/L to 4 mmol/L (final concentrations=1.5 nmol/L-400 μmol/L). 10 μL of each test compound solution was added to each well of 96 plate with 10 μL of [^3H]-cAMP or [^3H]-cGMP solution, diluted with a buffer (40 mmol/L Tris-HCl (pH 7.4), 10 mmol/L MgCl2) to the concentration shown in Table 20 and 40 μL of each of the human recombinant PDE proteins in units shown in Table 20. The plate was incubated at 30° C. for 20 min, and then at 65° C. for 2 min. Subsequently, 25 μL of 1 mg/mL 5′-nucleotidase (Crotalus atrox venom, Sigma) was added to each well and the plate was incubated at 30° C. for 10 min. 200 μL of Dowex solution (300 mg/mL Dowex 1×8-400 (Sigma Aldrich), 33% ethanol) was then added to each well and the plate was shaken at 4° C. for 20 min. Subsequently, 200 μL of MicroScint 20 (Packard) was added to each well and the radioactivity of each sample was measured by a scintillation counter (Topcount, Packard) IC50 was calculated by GraphPad Prism v3.03 (GraphPad Software).

PDE4Bcat = target: T2, PDE4Bcat (Homo sapiens, UniProt Q07343); assay: Inhibition of phosphodiesterase activity, [3H]-cAMP hydrolysis, recombinant PDE4Bcat; assay type: biochemical; conditions: cAMP 2 μmol/L, read-out: IC50(μmol/L) PDE4
T2 construct: catalytic domain (indicated as “cat,” hereinafter), PDE4Bcat; made in house; host or cells: Sf9 insect cells (baculovirus, Bac-to-Bac)
T2 sequence (Q07343 330-659 limits assumed): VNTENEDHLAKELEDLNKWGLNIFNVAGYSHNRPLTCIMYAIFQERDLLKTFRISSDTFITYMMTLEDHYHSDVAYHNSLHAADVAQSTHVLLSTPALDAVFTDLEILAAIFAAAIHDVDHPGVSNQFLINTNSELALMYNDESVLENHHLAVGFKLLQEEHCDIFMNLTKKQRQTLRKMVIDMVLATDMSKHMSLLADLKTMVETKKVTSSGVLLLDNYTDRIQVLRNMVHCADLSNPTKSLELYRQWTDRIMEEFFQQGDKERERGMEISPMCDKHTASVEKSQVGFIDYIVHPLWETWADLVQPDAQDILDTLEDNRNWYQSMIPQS
Procedure: as §1, §2

[2] = system: histamine-induced bronchoconstriction; assay: Histamine-induced bronchoconstriction in guinea pigs; assay type: in vivo, guinea pig; conditions: Cavia porcellus, iv, 0.5 min, 30 seconds after administration, histamine 12.5 μg/kg i.v.; for inhibition in vivo at 0.1 mg/kg: values in brackets: test compound 0.1 mg/kg, i.v.; for inhibition in vivo at 1 mg/kg: test compound 1 mg/kg i.v.
Procedure: Guinea pigs were anesthetized with pentobarbital (30 mg/kg, i.p.). A cannula for IV administeration, a cannula for collecting blood and measurement of blood pressure and a trachea cannula were inserted into the left exterior jugular vein, right interior carotid artery and trachea, respectively. The animals were placed under artificial respiration at 60 times/min and 10 mL/kg/stroke. The airflow through the branch of the tracheal cannula was measured by a bronchospasm transducer (Ugo-Basile) and recorded on a computer via Power Lab (ADInstruments Japan). The animals were immobilized with gallamine (10 mg/kg, i.v.), then administered histamine at 10-minute intervals (12.5 μg/kg, i.v.). […] To examine the inhibitory activity of test compound, the histamine-induced bronchoconstriction was measured after 30 seconds of drug administration. The bronchoconstriction was recorded as the change of the airflow: The results were shown by percentages of the maximum histamine-induced bronchoconstriction. Each test compound was prepared as a 10 mg/mL solution in DMSO. Gallamine was prepared as a 10 mg/mL solution in physiological saline. Histamine was prepared as a 1 mg/mL solution in physiological saline, which was diluted with physiological saline to 62.5 μg/mL for use.

COc1ccc(C2=NNC(=O)CC2C)c2ccnn12 (stereo not drawn) [Example 214]
IC50 [1]: < 1 µmol/L | IC50 (PDE4Bcat): 1 to 10 µmol/L | inhibition in vivo at 0.1 mg/kg [2]: 80 to 90%

CCc1cc2c(C3=NNC(=O)CC3C)ccc(N(C)C)n2n1 (stereo not drawn) [Example 224]
IC50 [1]: 1 to 10 µmol/L | IC50 (PDE4Bcat): 0.1 to 1 µmol/L

CCC1CC(=O)NN=C1c1ccc(OC)n2nc(C(F)(F)F)cc12 (stereo not drawn) [Example 212]
IC50 [1]: > 10 µmol/L | IC50 (PDE4Bcat): < 1 µmol/L

COc1ccc(C2=NNC(=O)CC2C)c2cc(C(C)F)nn12 (stereo not drawn) [Example 240, 6-[2-(1-fluoroethyl)-7-methoxy-pyrazolo[1,5-a]pyridine-4-yl]-4,5-dihydro-5-methyl-3-(2H)-pyridazinone]
IC50 [1]: 1 to 10 µmol/L | IC50 (PDE4Bcat): < 1 µmol/L | inhibition in vivo at 0.1 mg/kg [2]: ≥ 90%

CCc1cc2c(C3=NNC(=O)CC3C)ccc([S+](C)[O-])n2n1 (stereo not drawn) [Example 249, 6-(2-ethyl-7-methylsulfinyl-pyrazolo[1,5-a]pyridine-4-yl)-4,5-dihydro-5-methyl-3-(2H)-pyridazinone]
IC50 [1]: 1 to 10 µmol/L | IC50 (PDE4Bcat): < 1 µmol/L | inhibition in vivo at 0.1 mg/kg [2]: ≥ 90%

COc1ccc(C2=NNC(=O)CC2C)c2cc(CF)nn12 (stereo not drawn) [Example 236, 6-(2-fluoromethyl-7-methoxy-pyrazolo[1,5-a]pyridine-4-yl)-4,5-dihydro-5-methyl-3-(2H)-pyridazinone]
IC50 [1]: 1 to 10 µmol/L | IC50 (PDE4Bcat): 0.1 to 1 µmol/L

COc1ccc(-c2cc(C)c(=O)n(Cc3cccnc3)n2)c2cc(C(C)C)nn12 [Example 299]
IC50 [1]: > 10 µmol/L | IC50 (PDE4Bcat): < 1 µmol/L

CCc1cc2c(C3=NNC(=O)CC3C)ccc(NC)n2n1 (stereo not drawn) [Example 225]
IC50 [1]: 1 to 10 µmol/L | IC50 (PDE4Bcat): < 1 µmol/L | inhibition in vivo at 0.1 mg/kg [2]: 80 to 90%

COc1ccc(C2=NNC(=O)CC2C)c2cc(C(C)=O)nn12 (stereo not drawn) [Example 241, 6-(2-acetyl-7-methoxy-pyrazolo[1,5-a]pyridine-4-yl)-4,5-dihydro-5-methyl-3-(2H)-pyridazinone]
IC50 [1]: 1 to 10 µmol/L | IC50 (PDE4Bcat): < 1 µmol/L | inhibition in vivo at 0.1 mg/kg [2]: ≥ 90%

CCOC(=O)c1ccc(C2=NNC(=O)CC2C)c2cc(CC)nn12 (stereo not drawn) [Example 204]
IC50 [1]: 1 to 10 µmol/L | IC50 (PDE4Bcat): 1 to 10 µmol/L

CCc1cc2c(C3=NNC(=O)CC3C)ccc(SC)n2n1 (stereo not drawn) [Example 223]
IC50 [1]: 1 to 10 µmol/L | IC50 (PDE4Bcat): 0.1 to 1 µmol/L | inhibition in vivo at 0.1 mg/kg [2]: ≥ 90%

CCCc1cc2c(C3=NNC(=O)CC3C)ccc(OC)n2n1 (stereo not drawn) [Example 217]
IC50 [1]: 1 to 10 µmol/L | IC50 (PDE4Bcat): 0.1 to 1 µmol/L | inhibition in vivo at 0.1 mg/kg [2]: ≥ 90%

CCc1cc2c(C3=NNC(=O)CC3C)ccc(OC(C)C)n2n1 (stereo not drawn) [Example 245, 6-(7-isopropoxy-2-ethyl-pyrazolo[1,5-a]pyridine-4-yl)-4,5-dihydro-5-methyl-3-(2H)-pyridazinone]
IC50 [1]: 1 to 10 µmol/L | IC50 (PDE4Bcat): > 10 µmol/L | inhibition in vivo at 0.1 mg/kg [2]: ≥ 90%

COc1ccc(-c2n[nH]c(=O)cc2C)c2cc(C(F)(F)F)nn12 [Example 303]
IC50 [1]: > 10 µmol/L | IC50 (PDE4Bcat): 1 to 10 µmol/L

COc1ccc(-c2ccc(=O)[nH]n2)c2cc(C(F)(F)F)nn12 [Example 302, 6-(2-trifluoromethyl-7-methoxy-pyrazolo[1,5-a]pyridine-4-yl)-3-(2H)-pyridazinone]
IC50 [1]: 1 to 10 µmol/L | IC50 (PDE4Bcat): 0.1 to 1 µmol/L | inhibition in vivo at 0.1 mg/kg [2]: ≥ 90%

COc1ccc(C2=NNC(=O)CC2C)c2cc(C(C)O)nn12 (stereo not drawn) [Example 238, 6-[2-(1-hydroxyethyl)-7-methoxy-pyrazolo[1,5-a]pyridine-4-yl]-4,5-dihydro-5-methyl-3-(2H)-pyridazinone]
IC50 [1]: 1 to 10 µmol/L | IC50 (PDE4Bcat): < 1 µmol/L

CCc1cc2c(C3=NNC(=O)CC3C)ccc(NC(C)=O)n2n1 (stereo not drawn) [Example 228]
IC50 [1]: 1 to 10 µmol/L | IC50 (PDE4Bcat): > 10 µmol/L

COc1ccc(-c2ccc(=O)n(Cc3ccncc3)n2)c2cc(C(C)C)nn12 [Example 275]
IC50 [1]: > 10 µmol/L | IC50 (PDE4Bcat): 1 to 10 µmol/L

CCc1nn2cc(Cl)cc(C3=NNC(=O)CC3C)c2c1Cl (stereo not drawn) [Example 203]
IC50 [1]: > 10 µmol/L | IC50 (PDE4Bcat): 0.1 to 1 µmol/L | inhibition in vivo at 1 mg/kg [2]: 70 to 80%

CCOc1ccc(C2=NNC(=O)CC2C)c2cc(CC)nn12 (stereo not drawn) [Example 244, 6-(7-ethoxy-2-ethyl-pyrazolo[1,5-a]pyridine-4-yl)-4,5-dihydro-5-methyl-3-(2H)-pyridazinone]
IC50 [1]: 1 to 10 µmol/L | IC50 (PDE4Bcat): 1 to 10 µmol/L

COc1ccc(C2=NNC(=O)CC2C)c2cc(C)nn12 (stereo not drawn) [Example 215]
IC50 [1]: 1 to 10 µmol/L | IC50 (PDE4Bcat): 0.1 to 1 µmol/L | inhibition in vivo at 0.1 mg/kg [2]: 80 to 90%

COc1ccc(C2=NNC(=O)CC2)c2cc(C(F)(F)F)nn12 [Example 209, 6-(7-methoxy-2-trifluoromethyl-pyrazolo[1,5-a]pyridine-4-yl)-4,5-dihydro-3-(2H)-pyridazinone]
IC50 [1]: > 10 µmol/L | IC50 (PDE4Bcat): 0.1 to 1 µmol/L | inhibition in vivo at 0.1 mg/kg [2]: 80 to 90%

CCc1cc2c(C3=NNC(=O)CC3C)ccc(N3CCOCC3)n2n1 (stereo not drawn) [Example 226]
IC50 [1]: 1 to 10 µmol/L | IC50 (PDE4Bcat): > 10 µmol/L

COc1ccc(C2=NNC(=O)CC2C)c2cc(C(F)F)nn12 (stereo not drawn) [Example 222]
IC50 [1]: 1 to 10 µmol/L | IC50 (PDE4Bcat): < 1 µmol/L | inhibition in vivo at 0.1 mg/kg [2]: 70 to 80%

CCc1cc2c(C3=NN(Cc4cccnc4)C(=O)CC3C)cc(F)cn2n1 (stereo not drawn) [Example 287, 6-(2-ethyl-6-fluoro-pyrazolo[1,5-a]pyridine-4-yl)-4,5-dihydro-5-methyl-2-(pyridine-3-ylmethyl)-3-(2H)-pyridazinone]
IC50 [1]: > 10 µmol/L | IC50 (PDE4Bcat): 1 to 10 µmol/L

COc1ccc(C2=NNC(=O)CC2C)c2cc(CO)nn12 (stereo not drawn) [Example 221]
IC50 [1]: 1 to 10 µmol/L | IC50 (PDE4Bcat): 1 to 10 µmol/L

CCc1cc2c(C3=NNC(=O)CC3C)ccc(-c3ccccc3)n2n1 (stereo not drawn) [Example 229]
IC50 [1]: 1 to 10 µmol/L | IC50 (PDE4Bcat): 1 to 10 µmol/L

CCc1nn2c(OC)ccc(C3=NNC(=O)CC3C)c2c1Cl (stereo not drawn) [Example 213]
IC50 [1]: > 10 µmol/L | IC50 (PDE4Bcat): 0.1 to 1 µmol/L | inhibition in vivo at 1 mg/kg [2]: 70 to 80%

COc1ccc(-c2n[nH]c(=O)cc2C)c2c(F)c(C(C)C)nn12 [Example 279, 6-(3-fluoro-7-methoxy-2-isopropyl-pyrazolo[1,5-a]pyridine-4-yl)-5-methyl-3-(2H)-pyridazinone]
IC50 [1]: > 10 µmol/L | IC50 (PDE4Bcat): 0.1 to 1 µmol/L

COc1ccc(-c2nn(C)c(=O)cc2C)c2cc(C(C)C)nn12 [Example 297]
IC50 [1]: > 10 µmol/L | IC50 (PDE4Bcat): < 1 µmol/L

CCc1cc2c(C3=NNC(=O)CC3C)ccc(C(C)=O)n2n1 (stereo not drawn) [Example 235, 6-(7-acetyl-2-ethyl-pyrazolo[1,5-a]pyridine-4-yl)-4,5-dihydro-5-methyl-3-(2H)-pyridazinone]
inhibition in vivo at 0.1 mg/kg [2]: ≥ 90%

CCc1nn2c(S(C)(=O)=O)ccc(C3=NNC(=O)CC3C)c2c1O (stereo not drawn) [Example 252]
IC50 [1]: 1 to 10 µmol/L | IC50 (PDE4Bcat): 1 to 10 µmol/L

CCc1cc2c(C3=NNC(=O)CC3C)ccc(S(C)(=O)=O)n2n1 (stereo not drawn) [Example 251, 6-(2-ethyl-7-methylsulfonyl-pyrazolo[1,5-a]pyridine-4-yl)-4,5-dihydro-5-methyl-3-(2H)-pyridazinone]
IC50 [1]: 1 to 10 µmol/L | IC50 (PDE4Bcat): 1 to 10 µmol/L

COc1ccc(C2=NNC(=O)CC2C)c2cc(C3CC3)nn12 (stereo not drawn) [Example 218]
IC50 [1]: 1 to 10 µmol/L | IC50 (PDE4Bcat): 0.1 to 1 µmol/L | inhibition in vivo at 0.1 mg/kg [2]: ≥ 90%

COc1ccc(C2=NNC(=O)CC2C)c2cc(SC)nn12 (stereo not drawn) [Example 219]
IC50 (PDE4Bcat): 0.1 to 1 µmol/L | inhibition in vivo at 0.1 mg/kg [2]: ≥ 90%

COc1ccc(-c2ccc(=O)n(Cc3ccccn3)n2)c2cc(C(C)C)nn12 [Example 274]
IC50 [1]: > 10 µmol/L | IC50 (PDE4Bcat): 0.1 to 1 µmol/L

C=Cc1cc2c(C3=NNC(=O)CC3C)ccc(OC)n2n1 (stereo not drawn) [Example 239, 6-(7-methoxy-2-vinyl-pyrazolo[1,5-a]pyridine-4-yl)-4,5-dihydro-5-methyl-3-(2H)-pyridazinone]
inhibition in vivo at 0.1 mg/kg [2]: ≥ 90%
